Values after ≈ are worked out from the molar mass of the structure shown. One block for each compound: values may come before it.
Legend:
Assay in all cases: ≥ marks a high value that may be exact or a test limit, other limits are often not marked, values filed in µg/mL are converted to µM
[1] = tested on: Escherichia coli ATCC 11775
[2] = tested on: Staphylococcus aureus ATCC 12600
[3] = tested on: Botrytis cinerea
[4] = tested on: Candida albicans ATCC 10231
[5] = tested on: Candida albicans ATCC 24433
[6] = tested on: Staphylococcus aureus MR
[7] = tested on: Candida albicans
[8] = tested on: Staphylococcus aureus ATCC 25923
[9] = tested on: Enterococcus faecalis CGMCC 1.595
[10] = tested on: Pseudomonas aeruginosa CGMCC 1.860
[11] = tested on: Lactococcus lactis AS1.1690
[12] = tested on: Bacillus cereus AS1.126
[13] = tested on: Escherichia coli AS1.349
[14] = tested on: Enterococcus faecium CGMCC 1.2334
[15] = tested on: Staphylococcus aureus AS1.72
[16] = tested on: Listeria monocytogenes LO28
[17] = tested on: Cronobacter sakazakii DPC 6440
[18] = tested on: Staphylococcus epidermidis ATCC 12228
[19] = tested on: Escherichia coli ATCC 25922
[20] = tested on: Clavibacter michiganensis subsp. michiganensis DSM 46294
[21] = tested on: Pectobacterium carotovorum subsp. carotovorum DSM 30168
[22] = tested on: Pseudomonas syringae pv. tomato DC3000
[23] = tested on: Xanthomonas vesicatoria DSM 50861
[24] = tested on: Pseudomonas syringae pv. syringae DSM 10604
[25] = tested on: Pseudomonas corrugata DSM 7228
[26] = tested on: Bacillus megaterium KCTC 1096
[27] = tested on: Proteus vulgaris
[28] = tested on: Pseudomonas aeruginosa KCTC 1637
[29] = tested on: Escherichia coli KCTC 1682
[30] = tested on: Staphylococcus aureus KCTC 1621
[31] = tested on: Bacillus subtilis KCTC 1918
[32] = tested on: Candida parapsilosis ATCC 22019

Structure (SMILES): CC[C@H](C)[C@H](NC(=O)[C@H](C)N)C(=O)N[C@@H](CC(N)=O)C(=O)N1CCC[C@H]1C(=O)N[C@@H](CCCCN)C(=O)N[C@@H](CO)C(=O)N[C@H](C(=O)N[C@@H](CCC(N)=O)C(=O)N[C@@H](CO)C(=O)N[C@@H](CC(C)C)C(=O)N[C@@H](CC(C)C)C(N)=O)C(C)C [AINPKSVQSLL]
- MIC [1]: ≥ 200 µM
- MIC [2]: ≥ 200 µM
- MIC [3]: ≥ 200 µM
- MIC [4]: > 200 µM

Structure (SMILES): CC[C@H](C)[C@@H]1NC(=O)[C@H](CCC(N)=O)NC(=O)[C@H](CCC(=O)O)NC(=O)[C@H](CCC(=O)O)NC(=O)[C@H](CCCCN)NC(=O)CNC(=O)[C@H](CC(C)C)NC(=O)[C@@H]2CSSC[C@@H](C(=O)N[C@@H](CCCN=C(N)N)C(=O)N[C@@H](CCCCN)C(=O)N[C@@H](CCCCN)C(=O)N[C@@H](CCCCN)C(=O)O)NC(=O)[C@@H]3CSSC[C@H](NC(=O)[C@H](Cc4ccccc4)NC(=O)[C@H](Cc4ccccc4)NC(=O)[C@H](CCCCN)NC(=O)[C@H](CCCN=C(N)N)NC(=O)[C@H](CC(C)C)NC(=O)[C@@H](NC(=O)[C@H](CCCCN)NC(=O)[C@@H]4CCCN4C(=O)[C@H](CC(C)C)NC(=O)[C@@H](N)Cc4ccccc4)[C@@H](C)O)C(=O)N[C@@H](CCCN=C(N)N)C(=O)N[C@@H]([C@@H](C)CC)C(=O)N[C@@H](CCCN=C(N)N)C(=O)NCC(=O)NCC(=O)N[C@@H](CCCN=C(N)N)C(=O)N[C@@H](CSSC[C@H](NC(=O)[C@H](CCCN=C(N)N)NC(=O)CNC1=O)C(=O)N[C@@H](CO)C(=O)N[C@@H](CC(N)=O)C(=O)N[C@@H](CO)C(=O)NCC(=O)N[C@@H](CCCN=C(N)N)C(=O)N[C@@H](CCCCN)C(=O)N3)C(=O)N[C@@H](C)C(=O)N[C@@H](C(C)C)C(=O)N[C@@H](CC(C)C)C(=O)N[C@@H](CC(N)=O)C(=O)N2 [FLPKTLRKFFCRIRGGRCAVLNCLGKEEQIGRCSNSGRKCCRKKK]
- MIC [5]: 2.41 µM (≈ 12.5 µg/mL)
- MIC [6]: 4.82 µM (≈ 25 µg/mL)
- MIC [7]: 2.41 µM (≈ 12.5 µg/mL)
- MIC [8]: 0.385 µM (≈ 2 µg/mL)

Structure (SMILES): CC(C)[C@H](NC(=O)[C@H](CCCCN)NC(=O)[C@@H](N)CO)C(=O)N[C@@H](Cc1c[nH]c2ccccc12)C(=O)N[C@@H](CCCN=C(N)N)C(=O)N[C@@H](Cc1cnc[nH]1)C(=O)N[C@@H](Cc1c[nH]c2ccccc12)C(=O)O [SKVWRHW]
- MIC [9]: ≥ 100 µM
- MIC [10]: ≥ 100 µM
- MIC [11]: ≥ 100 µM
- MIC [12]: ≥ 100 µM
- MIC [13]: ≥ 100 µM
- MIC [14]: ≥ 100 µM
- MIC [15]: ≥ 100 µM

Structure (SMILES): CC(C)C[C@H](NC(=O)[C@H](CCCN=C(N)N)NC(=O)[C@H](CCCCN)NC(=O)[C@H](Cc1ccccc1)NC(=O)[C@H](Cc1ccccc1)NC(=O)[C@H](CCCCN)NC(=O)[C@H](Cc1ccccc1)NC(=O)[C@H](CCCCN)NC(=O)[C@H](CCCCN)NC(=O)[C@H](CCCCN)NC(=O)[C@@H](N)CCCN=C(N)N)C(=O)N[C@@H](Cc1ccccc1)C(N)=O [RKKKFKFFKRLF]
- MIC [20]: 0.299 µM (≈ 0.5 µg/mL)
- MIC [21]: 5.98 µM (≈ 9.99 µg/mL)
- MIC [22]: 5.98 µM (≈ 9.99 µg/mL)
- MIC [23]: 0.299 µM (≈ 0.5 µg/mL)
- MIC [24]: 0.0598 µM (≈ 0.1 µg/mL)
- MIC [25]: 0.149 µM (≈ 0.25 µg/mL)

Structure (SMILES): CC[C@H](C)[C@H](NC(=O)[C@@H]1CCCN1C(=O)[C@@H]1CCCN1C(=O)[C@@H](NC(=O)[C@H](Cc1cnc[nH]1)NC(=O)[C@@H](N)C(C)C)C(C)C)C(=O)N[C@H]1CSSC[C@@H](C(=O)N[C@@H](CCCN=C(N)N)C(=O)N[C@@H](CCCCN)C(=O)O)NC(=O)[C@H](CCC(=O)O)NC(=O)[C@H](CCCN=C(N)N)NC(=O)[C@H](Cc2cnc[nH]2)NC(=O)[C@H](CO)NC1=O [VHVPPICSHRECRK]
- MIC [1]: ≥ 200 µM
- MIC [2]: ≥ 200 µM
- MIC [3]: ≥ 200 µM
- MIC [4]: > 200 µM

Structure (SMILES): CC[C@H](C)[C@H](NC(=O)[C@H](CCCCN)NC(=O)[C@H](CCCCN)NC(=O)[C@H](Cc1ccccc1)NC(=O)[C@@H](N)Cc1c[nH]c2ccccc12)C(=O)N1CCC[C@H]1C(=O)N[C@@H](CCCCN)C(=O)N[C@@H](Cc1ccccc1)C(=O)N[C@@H](CC(C)C)C(=O)N[C@@H](Cc1cnc[nH]1)C(=O)N[C@@H](CC(C)C)C(=O)N[C@@H](CC(C)C)C(=O)N[C@@H](CCCCN)C(=O)N[C@@H](CCCCN)C(=O)N[C@@H](Cc1ccccc1)C(N)=O [WFKKIPKFLHLLKKF]
- MIC [26]: 0.78 µM (≈ 1.54 µg/mL)
- MIC [27]: 12.5 µM (≈ 24.7 µg/mL)
- MIC [28]: 1.56 µM (≈ 3.08 µg/mL)
- MIC [29]: 3.12 µM (≈ 6.16 µg/mL)
- MIC [30]: 3.12 µM (≈ 6.16 µg/mL)
- MIC [31]: 0.78 µM (≈ 1.54 µg/mL)

Structure (SMILES): CC[C@H](C)[C@H](NC(=O)[C@H](CC(C)C)NC(=O)[C@H](CCC(=O)O)NC(=O)[C@H](CO)NC(=O)[C@H](CCCN=C(N)N)NC(=O)[C@@H](N)CO)C(=O)N[C@H](C(=O)N[C@@H](Cc1cnc[nH]1)C(=O)N[C@@H](CCC(N)=O)C(=O)N[C@@H](CCCN=C(N)N)C(=O)N[C@@H](CC(C)C)C(=O)N[C@@H](Cc1ccccc1)C(N)=O)C(C)C [SRSELIVHQRLF]
- MIC [32]: ≥ 269 µM
- MIC [5]: ≥ 269 µM

Results, then the compound that gave them:

- MIC [16]: 2.44 µM (≈ 4.58 µg/mL)
- MIC [17]: ≥ 39.1 µM
Structure (SMILES): CC[C@H](C)[C@H](NC(=O)[C@@H](NC(=O)[C@H](CCCCN)NC(=O)[C@@H](NC(=O)[C@H](CCCCN)NC(=O)[C@@H]1CCCN1C(=O)[C@H](CCC(N)=O)NC(=O)[C@@H](NC(=O)[C@@H](N)Cc1c[nH]c2ccccc12)[C@@H](C)CC)[C@@H](C)O)C(C)C)C(=O)N[C@@H](C)C(=O)N[C@@H](Cc1ccc(O)cc1)C(=O)N[C@H](C(=O)N[C@@H](CCCN=C(N)N)C(=O)N[C@@H](Cc1ccc(O)cc1)C(=O)N[C@@H](CC(C)C)C(=O)O)C(C)C [WIQPKTKVIAYVRYL]

- MIC [5]: ≥ 100 µM
- MIC [18]: > 100 µM
- MIC [19]: > 100 µM
Structure (SMILES): CC[C@H](C)[C@H](NC(=O)CNC(=O)[C@@H](NC(=O)[C@H](C)NC(=O)[C@@H](NC(=O)[C@H](CCCCN)NC(=O)[C@@H]1CCCN1C(=O)[C@@H](NC(=O)[C@H](CCSC)NC(=O)[C@H](CO)NC(=O)[C@H](Cc1ccccc1)NC(=O)[C@@H](N)Cc1ccccc1)[C@@H](C)CC)[C@@H](C)CC)[C@@H](C)O)C(=O)N[C@@H](C)C(=O)N[C@@H](CO)C(=O)N[C@@H](CC(C)C)C(=O)N[C@H](C(=O)N[C@@H](CCCCN)C(=O)N[C@@H](CC(N)=O)C(=O)N[C@@H](CC(C)C)C(=O)O)C(C)C [FFSMIPKIATGIASLVKNL]

- MIC [16]: ≥ 156 µM
- MIC [17]: ≥ 625 µM
Structure (SMILES): CC[C@H](C)[C@H](NC(=O)[C@@H](N)Cc1c[nH]c2ccccc12)C(=O)N[C@@H](CCC(N)=O)C(=O)N1CCC[C@H]1C(=O)N[C@@H](CCCCN)C(=O)N[C@H](C(=O)N[C@@H](CCCCN)C(=O)N[C@H](C(=O)N[C@H](C(=O)N1CCC[C@H]1C(=O)N[C@@H](Cc1ccc(O)cc1)C(=O)N[C@H](C(=O)N[C@@H](C)C(=O)N[C@@H](Cc1ccc(O)cc1)C(=O)N[C@@H](CC(C)C)C(=O)O)C(C)C)[C@@H](C)CC)C(C)C)[C@@H](C)O [WIQPKTKVIPYVAYL]

- MIC [16]: ≥ 78.1 µM
- MIC [17]: ≥ 78.1 µM
Structure (SMILES): CC[C@H](C)[C@H](NC(=O)[C@H](C)N)C(=O)N[C@@H](CCC(N)=O)C(=O)N1CCC[C@H]1C(=O)N[C@@H](CCCCN)C(=O)N[C@H](C(=O)N[C@@H](CCCCN)C(=O)N[C@H](C(=O)N[C@H](C(=O)N1CCC[C@H]1C(=O)N[C@@H](Cc1ccc(O)cc1)C(=O)N[C@H](C(=O)N[C@@H](CCCN=C(N)N)C(=O)N[C@@H](Cc1ccc(O)cc1)C(=O)N[C@@H](CC(C)C)C(=O)O)C(C)C)[C@@H](C)CC)C(C)C)[C@@H](C)O [AIQPKTKVIPYVRYL]

— DBAASP
